Laboratory results taken from patent publication US20230398228A1, “ERIBULIN-BASED ANTIBODY-DRUG CONJUGATES AND METHODS OF USE” (EISAI R&D MANAGEMENT CO., LTD., priority 2016, published 2023).
Entries after “also recorded” stand apart in the source; their conditions may differ.

Legend:
SJSA-1 cells = assay: Crystal Violet cytotoxicity assay (Examples 1 and 2), SJSA-1
Procedure: (§1) Typically, test reagents were serial diluted 1:4 in 2 mL deep-well dilution plates, starting at 1 μM (10 dilutions total). 100 μL of diluted samples were added to the cell plates (starting concentration of test samples at 500 nM). […] Medium was discarded, plates were washed once with 200 μL DPBS, stained with 50 μL of 0.2% Crystal Violet solution at room temperature for 15 min, and then washed extensively with tap water. Plates were air-dried, and Crystal Violet was dissolved with 200 μL of 1% SDS solution. Plates were read at 570 nm. Data was analyzed using GraphPad Prism 6. Assays were performed using a seeding density of 1,000 cells per well and compound exposure was for a total of 5 days. When shorter-term exposure was desired, medium containing cytotoxic agents was removed after 4 hours and replaced with fresh growth medium prior to 5-day incubation. For OVCAR3, CaOV3, and NCI-H2110, cells were seeded at 3,000 cells/well and incubated for 5 days with ADC.
In vitro potency of prepared ADCs was assessed using a Crystal Violet assay as detailed in section 1.4.1.
(§2) SJSA-1 cells are a human osteosarcoma tumor cell line that are negative for folate receptor alpha.
(§3) Typically, test reagents were serially-diluted 1:4 in 2 mL deep-well dilution plates, starting at 1 μM (10 dilutions total). 100 μL of diluted samples were added to the cell plates (starting concentration of test samples at 100 nM). […] Medium was discarded, plates were washed once with 200 μL DPBS, stained with 50 μL of 0.2% Crystal Violet solution at room temperature for 15 min, and then washed extensively with tap water. Plates were air-dried, and Crystal Violet was dissolved with 200 μL of 1% SDS solution. Plates were read at 570 nm. Data was analyzed using GraphPad Prism 6.

NCI-H2110 cells = conditions: Example 1
Procedure: as §1, §2, §3

[1] = test system: human BM-MSCs co-cultured with MKN-74 cells; assay: 3D co-culture system (rStomach, zPredicta), MSC differentiation by flow cytometry; assay type: cell-based; conditions: 7 days treatment, MORAb-202 10 nM, MORAb-003 10 nM, eribulin […] and 0.2 nM (Table 41)
Procedure: All mesenchymal stem cell (MSC)-containing 3D co-culture experiments were conducted in zPredicta, using organ-specific 3D extracellular matrix systems such as rStomach™. Bone marrow mesenchymal stem cells (BM-MSCs) in rStomach™ were co-cultured with the Nuc Red Light MKN-74 gastric cancer cell line in quadruplicate in 48-well format for 12 days. […] Prior to culture, BM-MSCs were evaluated for target antigen expression and for markers of MSC differentiation (Table 40) by flow cytometry.
Controls included untreated and vehicle-treated (PBS and DMSO) cultures. MSC differentiation was monitored by light microscopy. Once visible differentiation was observed, samples were harvested for staining and flow cytometry analysis.
Bone marrow mesenchymal stem cells (BM-MSCs) in rStomach™ (zPredicta) were co-cultured with the MKN-74 gastric cancer cell line for 12 days. […] Once visible MSC differentiation was observed by light microscopy, samples were harvested for staining and flow cytometry analysis.

ZR-75 cells = assay: Crystal Violet cytotoxicity assay (Example 4), ZR-75; assay type: cell-based, human
Procedure: (§4) Test reagents were serial diluted 1:3 in 2 mL deep-well dilution plates, starting at 200 nM (10 dilutions total). […] Medium was then discarded. […] Plates were read at 570 nm. Data was analyzed using GraphPad Prism 6.

NUGC3 cells = assay: Crystal Violet cytotoxicity assay (Example 4), NUGC3; assay type: cell-based, human; conditions: listed as MORAb-003-VCP-eribulin
Procedure: as §4

[2] = test system: Endo-12961 endometrial cancer patient-derived xenograft; assay: Endometrial cancer PDx model Endo-12961
Procedure: (§5) Tumor fragments were implanted subcutaneously into the left flank of 40 NMRI nu/nu female mice, and tumor volume was monitored. Mice with a tumor volume of 100-160 mm^3 were randomized into one of four groups (Groups A-D, Table 39). […] Each group consisted of 8 animals. The day of randomization was designated as Day 0 of the experiment.
(§6) Tumor growth was evaluated by the measurement of two perpendicular diameters twice weekly, and tumor volume (TV), relative tumor volume (RTV) and treated/control (T/C) values were calculated. Body weight was also evaluated twice weekly as a parameter for toxicity, with the calculation of the body weight per group and body weight changes (BWC) relative to the start of treatment. Animals were sacrificed when the individual tumor volume exceeded 1 cm^3, or at the end of the study.

[3] = test system: Endo-10590 endometrial cancer patient-derived xenograft; assay: Endometrial cancer PDx model Endo-10590
Procedure: as §5, §6

[4] = MORAb-202 5 mg/kg or eribulin 3.2 mg/kg
[5] = MORAb-202 5 mg/kg or eribulin 3.2 mg/kg, single i.v. dose

## MORAb-003-maleimido-PEG2-Val-Cit-pAB-eribulin [MORAb-202]
SJSA-1 cells; Example 1 screening
  killing of FR-negative SJSA-1 cells (off-target), in words: little killing
SJSA-1 cells; read-out: Cytotoxicity (IC50) SJSA-1, SJSA-1 cells, mean of replicate experiments, where performed
  IC50: > 100 nM
SJSA-1 cells; read-out: cytotoxicity (EC50) on SJSA-1 cells, Example 2
  EC50: > 100 nM
NCI-H2110 cells
  cytotoxicity on NCI-H2110 cells, in words: potent cytotoxicity
NCI-H2110 cells; read-out: IC50 on NCI-H2110
  IC50: 0.73 nM
[1]; PBS 14.6%
  Percentage of live cells, Pericytes: 11.4%
[1]; PBS […]
  Percentage of live cells, Adipocytes: 22.6%
  Percentage of live cells, MSCs: 43.7%
ZR-75 cells
  cytotoxicity on ZR-75 cells, in words: little killing
NUGC3 cells
  cytotoxicity on NUGC3 cells, in words: little killing; also recorded: low cytotoxicity
[2]; [4]
  tumor re-growth during the study, in words: no significant tumor re-growth
[2]; [5]
  anti-tumor activity, in words: significant anti-tumor activity
[2]; first week post-treatment
  effect on body weight, in words: no body weight loss
[3]; [4]
  tumor re-growth during the study, in words: no significant tumor re-growth
[3]; [5]
  anti-tumor activity, in words: significant anti-tumor activity
[3]; first week post-treatment
  effect on body weight, in words: no body weight loss
